Experimental data as given in patent publication US20240182420A1, “MICROBIOCIDAL ISONICOTINIC AMIDE DERIVATIVES” (SYNGENTA CROP PROTECTION AG, priority 2021, published 2024).

Assays:
[1] = test system: Botryotinia fuckeliana syn. Botrytis cinerea; test: Botryotinia fuckeliana syn. Botrytis cinerea (grey mold on tomato), tomato plants; type: in vivo; details: tomato plants cv. Roter Gnom, inoculated two days after application, leaf area covered by disease 5-6 days after application
Description: 4-week old tomato plants cv. Roter Gnom are treated sprayed in a spray chamber with the formulated test compound diluted in water. The test plants are inoculated by spraying them with a spore suspension two days after application. The inoculated test plants are incubated at 20° C. and 95% rh in a greenhouse and the percentage leaf area covered by disease is assessed when an appropriate level of disease appears on untreated check plants (5-6 days after application).

Alternaria solani = Alternaria solani (early blight of tomato), tomato leaf disks, preventive; type: in vivo; details: foliar, 96 h, assessed 4 dpi, vs untreated control
Description: Tomato leaf disks are placed on water agar in multiwell plates (24-well format) and sprayed with test solutions. After drying, the leaf disks are inoculated with a spore suspension of the fungus. After appropriate incubation the activity of a compound is assessed 4 dpi (days post inoculation) as preventive fungicidal activity.

Pyrenophora teres = Pyrenophora teres (net blotch of barley), barley leaf segments, preventive; type: in vivo; details: foliar, 96 h, assessed 4 dpi, vs untreated control
Description: (§1) Barley leaf segments are placed on agar in multiwell plates (24-well format) and sprayed with test solutions. After drying, the leaf disks are inoculated with a spore suspension of the fungus. After appropriate incubation, the activity of a compound is assessed 4 dpi (days after inoculation) as preventive fungicidal activity.

[2] = test system: Monographella nivalis syn. Microdochium nivale, Fusarium nivale; test: Monographella nivalis syn. Microdochium nivale (snow mould, foot rot), liquid culture growth inhibition; type: cell-based; details: PDB nutrient broth, 24° C., 72 hrs, 620 nm, vs untreated control
Description: (§2) Conidia of the fungus from cryogenic storage were directly mixed into nutrient broth (PDB potato dextrose broth). A DMSO solution of the test compounds was placed into a microtiter plate (96-well format) and the nutrient broth containing the fungal spores was added to it. The test plates were incubated at 24° C. and the inhibition of growth was determined photometrically after 72 hrs at 620 nm.

[3] = test system: Botryotinia fuckeliana syn. Botrytis cinerea; test: Botryotinia fuckeliana syn. Botrytis cinerea (gray mould), liquid culture growth inhibition; type: cell-based; details: PDB nutrient broth, 24° C., 72 hrs, photometric, vs untreated control
Description: as §2, with “hrs.” for “hrs at 620 nm.”

[4] = test system: Glomerella lagenarium syn Colletotrichum lagenarium; test: Glomerella lagenarium syn. Colletotrichum lagenarium (anthracnose), liquid culture growth inhibition; type: cell-based; details: Colletotrichum orbiculare, PDB nutrient broth, 24° C., 72 hrs, 620 nm, vs untreated control
Description: as §2

[5] = test system: Phaeosphaeria nodorum syn. Septoria nodorum; test: Phaeosphaeria nodorum syn. Septoria nodorum (glume blotch of wheat), wheat leaf segments, preventive; type: in vivo; details: Parastagonospora nodorum, foliar, 96 h, assessed 4 dpi, vs untreated control
Description: as §1, with “Wheat” for “Barley”, “incubation” for “incubation,”
The following compounds from Table T1 gave at least 80% control of Phaeosphaeria nodorum at 200 ppm when compared to untreated control under the same conditions, which sowed extensive disease development: • 1.1, 1.3, 1.7, 1.14, 1.39, 1.41, 1.86, 1.87, 1.92, 1.94, 1.95.

Sclerotinia sclerotiorum = Sclerotinia sclerotiorum (cottony rot, white mold), liquid culture growth inhibition; type: cell-based; details: PDB nutrient broth, 24° C., 72 hrs, 620 nm, vs untreated control
Description: as §2, with “Mycelial fragments” for “Conidia”, “fungus prepared” for “fungus”, “a fresh liquid culture” for “cryogenic storage”

Row | Compound | pest or weed control at 200 ppm [1] [%] | pest or weed control at 200 ppm (Alternaria solani) [%] | pest or weed control at 200 ppm (Pyrenophora teres) [%] | inhibition of growth at 20 ppm [2] [%] | inhibition of growth at 20 ppm [3] [%] | inhibition of growth at 20 ppm [4] [%] | pest or weed control at 200 ppm [5] [%] | inhibition of growth at 20 ppm (Sclerotinia sclerotiorum) [%]
1 | Cc1cccc(Oc2cnc(C)cc2C(=O)NCC(F)c2ccc(Cl)cc2Cl)c1 (centres unmarked) [Compound 1.1, N-[2-(2,4-dichlorophenyl)-2-fluoro-ethyl]-2-methyl-5-(3-methylphenoxy)pyridine-4-carboxamide] | ≥ 50 | ≥ 80 | ≥ 80 | ≥ 80 | ≥ 80 | ≥ 80 | ≥ 80 | ≥ 80
2 | Cc1cccc(Oc2cnc(Cl)cc2C(=O)NCC(F)c2ccc(Cl)cc2Cl)c1 (centres unmarked) [Compound 1.3, 2-chloro-N-[2-(2,4-dichlorophenyl)-2-fluoro-ethyl]-5-(3-methylphenoxy) pyridine-4-carboxamide] | ≥ 50 | – | ≥ 80 | – | ≥ 80 | ≥ 80 | ≥ 80 | ≥ 80
3 | Cc1cc(C(=O)NCC(F)c2ccc(Cl)cc2Cl)c(Oc2cccc(C3CC3)c2)cn1 (centres unmarked) [Compound 1.14, 5-(3-cyclopropyl-phenoxy)-N-[2-(2,4-dichlorophenyl)-2-fluoro-ethyl]-2-methyl-pyridine-4-carboxamide] | ≥ 50 | ≥ 80 | ≥ 80 | ≥ 80 | ≥ 80 | ≥ 80 | ≥ 80 | ≥ 80
4 | Cc1ccc(C(F)CNC(=O)c2cc(C)ncc2Oc2cccc(C3CC3)c2)c(C)c1 (centres unmarked) [Compound 1.39, 5-(3-cyclopropyl-phenoxy)-N-[2-(2,4-dimethylphenyl)-2-fluoro-ethyl]-2-methyl-pyridine-4-carboxamide] | ≥ 50 | ≥ 80 | ≥ 80 | ≥ 80 | ≥ 80 | ≥ 80 | ≥ 80 | ≥ 80
5 | Cc1cc(C(=O)NC[C@@H](F)c2ccc(Cl)cc2Cl)c(Oc2cccc(C3CC3)c2)cn1 [Compound 1.41, 5-(3-cyclopropyl-phenoxy)-N-[(2S)-2-(2,4-dichlorophenyl)-2-fluoro-ethyl]-2-methyl-pyridine-4-carboxamide] | ≥ 50 | ≥ 80 | ≥ 80 | ≥ 80 | ≥ 80 | ≥ 80 | ≥ 80 | ≥ 80
6 | C=C(C)COc1cncc(Oc2cccc(C3CC3)c2)c1C(=O)NCC(F)c1ccc(Cl)cc1Cl (centres unmarked) [Compound 1.85, 3-(3-cyclopropyl-phenoxy)-N-[2-(2,4-dichlorophenyl)-2-fluoro-ethyl]-5-(2-methylallyloxy) pyridine-4-carboxamide] | ≥ 50 | – | ≥ 80 | ≥ 80 | ≥ 80 | ≥ 80 | – | ≥ 80
7 | C#Cc1cncc(Oc2cccc(C3CC3)c2)c1C(=O)NCC(F)c1ccc(Cl)cc1Cl (centres unmarked) [Compound 1.87, 3-(3-cyclopropyl-phenoxy)-N-[2-(2,4-dichlorophenyl)-2-fluoro-ethyl]-5-ethynyl-pyridine-4-carboxamide] | ≥ 50 | ≥ 80 | ≥ 80 | ≥ 80 | ≥ 80 | ≥ 80 | ≥ 80 | ≥ 80
8 | C#CC(C)(C)Oc1cncc(Oc2cccc(C3CC3)c2)c1C(=O)NCCc1ccc(Cl)cc1Cl [Compound 1.88, 3-(3-cyclopropyl-phenoxy)-N-[2-(2,4-dichlorophenyl)ethyl]-5-(1,1-dimethylprop-2-ynoxy)pyridine-4-carboxamide] | ≥ 50 | – | ≥ 80 | ≥ 80 | ≥ 80 | ≥ 80 | – | ≥ 80
9 | Cc1cncc(Oc2cccc(C3CC3)c2)c1C(=O)NC[C@H](F)c1ccc(Cl)cc1Cl [Compound 1.94, 3-(3-cyclopropyl-phenoxy)-N-[(2R)-2-(2,4-dichlorophenyl)-2-fluoro-ethyl]-5-methyl-pyridine-4-carboxamide] | – | ≥ 80 | ≥ 80 | ≥ 80 | ≥ 80 | ≥ 80 | ≥ 80 | ≥ 80
10 | O=C(NC[C@H](F)c1ccc(Cl)cc1Cl)c1c(Br)cncc1Oc1cccc(C2CC2)c1 [Compound 1.95, 3-bromo-5-(3-cyclopropyl-phenoxy)-N-[(2R)-2-(2,4-dichlorophenyl)-2-fluoro-ethyl]pyridine-4-carboxamide] | – | ≥ 80 | – | ≥ 80 | ≥ 80 | ≥ 80 | ≥ 80 | ≥ 80
